Here are results for eleven compounds from US20220132847A1, “CINNOLINIUM COMPOUNDS FOR USE IN A METHOD OF CONTROLLING UNWANTED PLANT GROWTH” (SYNGENTA CROP PROTECTION AG, priority 2019, published 2022).

Test in all cases: Post-emergence efficacy, glasshouse
Common to all, as to assay type: in vivo

In experiment [1] the test system is Amaranthus palmeri (AMAPA). The conditions noted are these: Amaranthus palmeri, post-emergence, 312 h, evaluated after 13 days, 100=total damage to plant, 0=no damage to plant, read-out: Control of weed species after post-emergence application, AMAPA; for pest or weed control at 500 g/ha: Application Rate 500 g/Ha; for pest or weed control at 1000 g/ha: Application Rate 1000 g/Ha. In short, it runs like this: (§1)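 Post-emergence spray on 14-day-old pot plants of the formulated compound (acetone/IF50, 50 g/l stock diluted in water with 0.25% or 1% Empicol ESC70 plus 1% ammonium sulphate). Glasshouse at 24/16° C day/night, 14 h light, 65% humidity; visual damage rated after 13 days, 0 none to 100 total.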

In experiment [2] the test system is Chenopodium album (CHEAL). The following applies: Chenopodium album, post-emergence, 312 h, evaluated after 13 days, 100=total damage to plant, 0=no damage to plant, read-out: Control of weed species after post-emergence application, CHEAL; for pest or weed control at 500 g/ha: Application Rate 500 g/Ha; for pest or weed control at 1000 g/ha: Application Rate 1000 g/Ha. In short, it runs like this:
as §1

The test system of experiment [3] is Digitaria sanguinalis (DIGSA). The conditions noted are these: Digitaria sanguinalis, post-emergence, 312 h, evaluated after 13 days, 100=total damage to plant, 0=no damage to plant, read-out: Control of weed species after post-emergence application, DIGSA; for pest or weed control at 500 g/ha: Application Rate 500 g/Ha; for pest or weed control at 1000 g/ha: Application Rate 1000 g/Ha. The procedure, abridged: as §1

The test system of experiment [4] is Echinochloa crus-galli (ECHCG). The following applies: Echinochloa crus-galli, post-emergence, 312 h, evaluated after 13 days, 100=total damage to plant, 0=no damage to plant, read-out: Control of weed species after post-emergence application, ECHCG; for pest or weed control at 500 g/ha: Application Rate 500 g/Ha; for pest or weed control at 1000 g/ha: Application Rate 1000 g/Ha. In short, it runs like this:
as §1

Experiment [5] relates to Eleusine indica (ELEIN). The conditions noted are these: Eleusine indica, post-emergence, 312 h, evaluated after 13 days, 100=total damage to plant, 0=no damage to plant, read-out: Control of weed species after post-emergence application, ELEIN; for pest or weed control at 500 g/ha: Application Rate 500 g/Ha; for pest or weed control at 1000 g/ha: Application Rate 1000 g/Ha. The procedure, abridged: as §1

For experiment [6], the system named is Euphorbia heterophylla (EPHHL). The conditions noted are these: Euphorbia heterophylla, post-emergence, 312 h, evaluated after 13 days, 100=total damage to plant, 0=no damage to plant, read-out: Control of weed species after post-emergence application, EPHHL; for pest or weed control at 500 g/ha: Application Rate 500 g/Ha; for pest or weed control at 1000 g/ha: Application Rate 1000 g/Ha. In short, it runs like this:
as §1

For experiment [7], the system named is Ipomoea hederacea (IPOHE). The conditions noted are these: Ipomoea hederacea, post-emergence, 312 h, evaluated after 13 days, 100=total damage to plant, 0=no damage to plant, read-out: Control of weed species after post-emergence application, IPOHE; for pest or weed control at 500 g/ha: Application Rate 500 g/Ha; for pest or weed control at 1000 g/ha: Application Rate 1000 g/Ha. In short, it runs like this: as §1

Experiment [8] relates to Lolium perenne (LOLPE). The conditions noted are these: Lolium perenne, post-emergence, 312 h, evaluated after 13 days, 100=total damage to plant, 0=no damage to plant, read-out: Control of weed species after post-emergence application, LOLPE; for pest or weed control at 500 g/ha: Application Rate 500 g/Ha; for pest or weed control at 1000 g/ha: Application Rate 1000 g/Ha. The procedure, abridged: as §1

Experiment [9] deals with Setaria faberi (SETFA). The following applies: Setaria faberi, post-emergence, 312 h, evaluated after 13 days, 100=total damage to plant, 0=no damage to plant, read-out: Control of weed species after post-emergence application, SETFA; for pest or weed control at 500 g/ha: Application Rate 500 g/Ha; for pest or weed control at 1000 g/ha: Application Rate 1000 g/Ha. The procedure, abridged:
as §1

Consider `CCOC(=O)Cc1c[n+](C)nc2ccccc12` [Compound A52, ethyl 2-(2-methylcinnolin-2-ium-4-yl)acetate 2,2,2-trifluoroacetate], for which the pest or weed control at 500 g/ha is 50% in [1]; 60% in experiment [2]; 30% in [3]; 10% in [4]; 70% in [5]; 40% in [6]. Besides, the pest or weed control at 500 g/ha in [7] came to 20%; in experiment [8], 10%; in experiment [9], 10%.
As to `COP(=O)(O)Cc1c[n+](C)nc2ccccc12` [Compound A53], the pest or weed control at 1000 g/ha in experiment [1] was found to be 100%; in [2], 70%; in experiment [3], 90%; in experiment [4], 80%; in [5], 100%; in experiment [6], 100%. Besides, the pest or weed control at 1000 g/ha in experiment [7] was found to be 100%; in experiment [8] it was 30%; in experiment [9] it was 90%.
As to `CCOP(=O)(O)CCc1c[n+](C)nc2ccccc12` [Compound A54, ethoxy-[2-(2-methylcinnolin-2-ium-4-yl)ethyl]phosphinic acid 2,2,2-trifluoroacetate], the pest or weed control at 500 g/ha came to 30% in experiment [1]; 20% in experiment [2]; 40% in experiment [3]; 30% in [4]; 30% in [5]; 80% in [6]. Further, the pest or weed control at 500 g/ha stood at 20% in experiment [7], 20% in [8] and 30% in experiment [9].
For `C[n+]1cc(CCC(=O)O)c2ccccc2n1` [Compound A55, 3-(2-methylcinnolin-2-ium-4-yl)propanoic acid chloride], the pest or weed control at 1000 g/ha in [1] came to 90%; in experiment [2], 100%; in experiment [3], 100%; in experiment [4], 90%; in [5] it was 100%; in experiment [6], 70%. Also, the pest or weed control at 1000 g/ha in experiment [7] is 70%; in experiment [8] it was 20%; in experiment [9], 30%.
Take `C[n+]1cc(CCC(=O)O)c2ccccc2n1` [Compound A56, 3-(2-methylcinnolin-2-ium-4-yl)propanoic acid 2,2,2-trifluoroacetate]: the pest or weed control at 500 g/ha in experiment [1] was 100%; in [2], 90%; in experiment [3], 100%; in experiment [4], 70%; in experiment [5] it was 70%; in experiment [6], 40%. Also, the pest or weed control at 500 g/ha in experiment [7] turned out to be 30%; in experiment [8], 10%; in experiment [9], 60%.
Consider `C[n+]1cc(SCC(=O)O)c2ccccc2n1` [Compound A57, 2-(2-methylcinnolin-2-ium-4-yl)sulfanylacetic acid chloride], for which the pest or weed control at 1000 g/ha in [1] was determined as 40%; in [2], 40%; in experiment [3], 30%; in experiment [4] it was 10%; in experiment [5] it was 40%; in [6] it was 20%. For the same compound, the pest or weed control at 1000 g/ha came to 10% in [7], 10% in [8] and 30% in [9].
Consider `C[n+]1cc(OCC(=O)O)c2ccccc2n1` [Compound A58], for which the pest or weed control at 1000 g/ha in experiment [1] was found to be 80%; in experiment [2] it was 70%; in experiment [3] it was 70%; in experiment [4], 10%; in experiment [5], 30%; in [6], 20%. In addition, the results for the pest or weed control at 1000 g/ha in experiment [7], in experiment [8] and in experiment [9] were 20%, 0% and 60%, respectively.
For `C[n+]1nc2ccccc2c(C(=O)[O-])c1-c1ccccc1` [Compound A60], the pest or weed control at 1000 g/ha in [1] came to 100%; in experiment [2], 100%; in experiment [3], 90%; in [4], 50%; in experiment [5], 100%; in experiment [6], 100%. Also, the pest or weed control at 1000 g/ha in [7] was 100%; in experiment [8] it was 40%; in experiment [9], 70%.
Consider `Cc1c(C(=O)[O-])c2ccccc2n[n+]1C` [Compound A61, 2,3-dimethylcinnolin-2-ium-4-carboxylate], for which the pest or weed control at 1000 g/ha in experiment [1] was found to be 100%; in experiment [2], 100%; in experiment [3], 70%; in experiment [4], 50%; in [5], 90%; in experiment [6] it was 70%. The pest or weed control at 1000 g/ha came to 100% in experiment [7], 10% in [8] and 40% in [9].
For the compound `COP(=O)([O-])c1c[n+](CC(=O)NS(C)(=O)=O)nc2ccccc12` [Compound A63, [2-[2-(methanesulfonamido)-2-oxo-ethyl]cinnolin-2-ium-4-yl]-methoxy-phosphinate], the pest or weed control at 1000 g/ha is 30% in [1]; 30% in [2]; 70% in [3]; 50% in [4]; 50% in [5]; 70% in [6]. For the same compound, the pest or weed control at 1000 g/ha in experiment [7] was determined as 30%; in [8] it was 10%; in experiment [9], 60%.
As for `CC[n+]1cc(P(=O)([O-])OC)c2ccccc2n1` [Compound A65], the pest or weed control at 1000 g/ha in experiment [1] amounted to 90%; in [2], 90%; in experiment [3] it was 90%; in experiment [4], 50%; in experiment [5], 80%; in [6] it was 100%. The pest or weed control at 1000 g/ha came out at 70% in experiment [7], 40% in experiment [8] and 80% in [9].
